Laboratory results: patent publication USRE39591E1, “6-O-substituted ketolides having antibacterial activity” (Abbott Laboratories, priority 1996, dated 2007)
Values after ≈ are worked out from the molar mass of the structure shown.

System: up to 32 different microorganisms
Assay: in vitro antibacterial activity (MIC), agar dilution on Brain Heart Infusion (BHI) agar with Steers replicator
Type: cell-based
Details: unit assumed
How it was run: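 Up to 32 strains were replicator-inoculated (1:100, or 1:10 for Micrococcus and Streptococcus) onto BHI agar plates holding serial compound dilutions and kept 20-24 h at 35-37° C. Plates were read visually against drug-free growth controls, with erythromycin A run alongside; MIC was the lowest concentration giving no growth, slight haze or sparse colonies.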

[1] = Candida albicans CCH 442 (code TT)
[2] = Enterococcus faecism ATCC 8043 (code II)
[3] = Escherichia coli DC-2 (code SS)
[4] = Escherichia coli JUHL (code QQ)
[5] = Haemophilis influenzae DILL AMP R (code WW)
[6] = Micrococcus luteus ATCC 4698 (code PP)
[7] = Micrococcus luteus ATCC 9341 (code OO)
[8] = Mycobacterium smegmatis ATCC 114 (code UU)
[9] = Nocardia Asteroides ATCC9970 (code VV)
[10] = Staphylococcus aureus 1775 (code GG)
[11] = Staphylococcus aureus A5177 (code BB)
[12] = Staphylococcus aureus A-5278 (code CC)
[13] = Staphylococcus aureus ATCC 6538P (code AA)
[14] = Staphylococcus aureus CMX 553 (code FF)
[15] = Staphylococcus aureus CMX 642A (code DD)
[16] = Staphylococcus aureus NCTC10649M (code EE)
[17] = Staphylococcus epidermidis 3519 (code HH)
[18] = Streptococcus Pneumonia 5649 (code ZZA)
[19] = Streptococcus Pneumonia 5979 (code ZZ)
[20] = Streptococcus Pneumonia ATCC6303 (code XX)
[21] = Streptococcus Pneumonia GYR 1171 (code YY)
[22] = Streptococcus agalactiae CMX 508 (code KK)
[23] = Streptococcus bovis A-5169 (code JJ)
[24] = Streptococcus pyogenes 930 (code MM)
[25] = Streptococcus pyogenes EES61 (code LL)
[26] = Streptococcus pyogenes PIU 2548 (code NN)

CCC1OC(=O)C(C)C(=O)C(C)C(OC2OC(C)CC(N(C)C)C2O)C(C)(OCC=Cc2ccc3cc(O)c(C(=O)Nc4ccccc4OC)cc3c2)CC(C)C(=O)C(C)C2NC(=O)OC12C (stereo not drawn) [Example 206, R is —CH2CH═CH-(3-hydroxy-2-(N-(2-methoxyphenyl)amido)-7-napthyl)]
MIC (organism code AA): 0.78 µg/mL (≈ 0.839 µM) | MIC (organism code BB): 0.39 µg/mL (≈ 0.419 µM) | MIC (organism code CC): > 100 µg/mL | MIC (organism code DD): 0.78 µg/mL (≈ 0.839 µM) | MIC (organism code EE): 0.78 µg/mL (≈ 0.839 µM) | MIC (organism code FF): 0.78 µg/mL (≈ 0.839 µM) | MIC (organism code GG): > 100 µg/mL | MIC (organism code HH): 0.78 µg/mL (≈ 0.839 µM) | MIC (organism code II): 0.39 µg/mL (≈ 0.419 µM) | MIC (organism code JJ): 0.1 µg/mL (≈ 0.108 µM) | MIC (organism code KK): 0.39 µg/mL (≈ 0.419 µM) | MIC (organism code LL): 0.39 µg/mL (≈ 0.419 µM) | MIC (organism code MM): > 100 µg/mL | MIC (organism code NN): 1.56 µg/mL (≈ 1.68 µM) | MIC (organism code OO): 0.2 µg/mL (≈ 0.215 µM) | MIC (organism code PP): 1.56 µg/mL (≈ 1.68 µM) | MIC (organism code QQ): > 100 µg/mL | MIC (organism code RR): 25 µg/mL (≈ 26.9 µM) | MIC (organism code SS): > 100 µg/mL | MIC (organism code TT): > 100 µg/mL | MIC (organism code UU): 3.1 µg/mL (≈ 3.33 µM) | MIC (organism code VV): 3.1 µg/mL (≈ 3.33 µM) | MIC (organism code WW): > 128 µg/mL | MIC (organism code XX): 0.5 µg/mL (≈ 0.538 µM) | MIC (organism code YY): 0.5 µg/mL (≈ 0.538 µM) | MIC (organism code ZZ): > 128 µg/mL | MIC (organism code ZZA): 4 µg/mL (≈ 4.3 µM)

CC[C@H]1OC(=O)[C@H](C)C(=O)[C@H](C)[C@@H](O[C@@H]2O[C@H](C)C[C@H](N(C)C)[C@H]2O)[C@@](C)(OCC=Cc2ccc(Cl)cc2)C[C@@H](C)C(=O)[C@H](C)[C@H]2OC(=O)O[C@@]21C [Example 74, Compound of Formula (IX): L is CO, T is O, R is —CH2CH═CH-(4-chlorophenyl)]
MIC [1]: > 100 µg/mL | MIC [2]: 0.1 µg/mL | MIC [3]: > 100 µg/mL | MIC [4]: > 100 µg/mL | MIC (Escherichia coli SS (code RR)): 3.3 µg/mL | MIC [5]: 4 µg/mL | MIC [6]: 0.2 µg/mL | MIC [7]: 0.05 µg/mL | MIC [8]: 0.39 µg/mL | MIC [9]: 0.39 µg/mL | MIC [10]: > 100 µg/mL | MIC [11]: 0.2 µg/mL | MIC [12]: > 100 µg/mL | MIC [13]: 0.2 µg/mL | MIC [14]: 0.2 µg/mL | MIC [15]: 0.2 µg/mL | MIC [16]: 0.2 µg/mL | MIC [17]: 0.2 µg/mL | MIC [18]: 0.5 µg/mL | MIC [19]: 32 µg/mL | MIC [20]: 0.125 µg/mL | MIC [21]: 0.125 µg/mL | MIC [22]: 0.05 µg/mL | MIC [23]: 0.05 µg/mL | MIC [24]: 50 µg/mL | MIC [25]: 0.05 µg/mL | MIC [26]: 0.39 µg/mL

CC[C@H]1OC(=O)[C@H](C)C(=O)[C@H](C)[C@@H](O[C@@H]2O[C@H](C)C[C@H](N(C)C)[C@H]2O)[C@@](C)(OCC(=O)c2ccc(F)cc2)C[C@@H](C)C(=O)[C@H](C)[C@H]2NC(=O)O[C@@]21C [Example 240, Compound of Formula (IX): L is CO, T is NH, R is —CH2C(O)-(4-F-phenyl)]
MIC (organism code AA): 3.1 µg/mL | MIC (organism code BB): 3.1 µg/mL | MIC (organism code CC): > 100 µg/mL | MIC (organism code DD): 6.2 µg/mL | MIC (organism code EE): 3.1 µg/mL | MIC (organism code FF): 3.1 µg/mL | MIC (organism code GG): > 100 µg/mL | MIC (organism code HH): 3.1 µg/mL | MIC (organism code II): 0.78 µg/mL | MIC (organism code JJ): 0.39 µg/mL | MIC (organism code KK): 0.39 µg/mL | MIC (organism code LL): 0.39 µg/mL | MIC (organism code MM): > 100 µg/mL | MIC (organism code NN): 0.78 µg/mL | MIC (organism code OO): 0.39 µg/mL | MIC (organism code PP): 1.56 µg/mL | MIC (organism code QQ): > 100 µg/mL | MIC (organism code RR): 3.1 µg/mL | MIC (organism code SS): > 100 µg/mL | MIC (organism code TT): > 100 µg/mL | MIC (organism code UU): 6.2 µg/mL | MIC (organism code VV): 1.56 µg/mL | MIC (organism code WW): 32 µg/mL | MIC (organism code XX): 0.25 µg/mL | MIC (organism code YY): 0.25 µg/mL | MIC (organism code ZZ): > 128 µg/mL | MIC (organism code ZZA): 1 µg/mL

CCC1OC(=O)C(C)C(=O)C(C)C(OC2OC(C)CC(N(C)C)C2O)C(C)(OCC=Cc2cccnc2)CC(C)C(=O)C(C)C2NC(=O)OC12C (stereo not drawn) [Example 185, R is —CH2CH═CH-(3-pyridyl)]
MIC [1]: > 100 µg/mL | MIC [2]: 0.05 µg/mL (≈ 0.0698 µM) | MIC [3]: 100 µg/mL (≈ 140 µM) | MIC [4]: 100 µg/mL (≈ 140 µM) | MIC (Escherichia coli SS (code RR)): 0.39 µg/mL (≈ 0.545 µM) | MIC [5]: 1 µg/mL (≈ 1.4 µM) | MIC [6]: 0.1 µg/mL (≈ 0.14 µM) | MIC [7]: 0.01 µg/mL (≈ 0.014 µM) | MIC [8]: 3.1 µg/mL (≈ 4.33 µM) | MIC [9]: 0.1 µg/mL (≈ 0.14 µM) | MIC [10]: > 100 µg/mL | MIC [11]: 0.1 µg/mL (≈ 0.14 µM) | MIC [12]: > 100 µg/mL | MIC [13]: 0.1 µg/mL (≈ 0.14 µM) | MIC [14]: 0.1 µg/mL (≈ 0.14 µM) | MIC [15]: 0.1 µg/mL (≈ 0.14 µM) | MIC [16]: 0.1 µg/mL (≈ 0.14 µM) | MIC [17]: 0.1 µg/mL (≈ 0.14 µM) | MIC [18]: 0.5 µg/mL (≈ 0.698 µM) | MIC [19]: > 128 µg/mL | MIC [20]: 0.03 µg/mL (≈ 0.0419 µM) | MIC [21]: 0.03 µg/mL (≈ 0.0419 µM) | MIC [22]: 0.01 µg/mL (≈ 0.014 µM) | MIC [23]: ≤ 0.005 µg/mL | MIC [24]: > 100 µg/mL | MIC [25]: 0.01 µg/mL (≈ 0.014 µM) | MIC [26]: 0.2 µg/mL (≈ 0.279 µM)
